Legend:
[1] = logP determination by HPLC (EEC Directive 79/831 Annex V.A8); format: physicochemical; conditions: for chromatographic logP: pH 2.3, HPLC gradient method, acetonitrile/0.1% aqueous phosphoric acid
Description: The logP values were determined in accordance with EEC Directive 79/831 Annex V.A8 by HPLC (gradient method, acetonitrile/0.1% aqueous phosphoric acid).

[2] = tested on: Meloidogyne incognita egg/larvae; test: Meloidogyne test (gall formation on lettuce roots); format: in vivo; conditions: active compound concentration 20 ppm; after 14 days
Description: Containers are filled with sand, solution of active compound, Meloidogyne incognita egg/larvae suspension and lettuce seeds. The lettuce seeds germinate and the plants develop. On the roots, galls are formed.
After the desired period of time, the nematicidal action is determined in % using gall formation as a measure. 100% means that no galls were found; 0% means that the number of galls on the treated plants corresponds to that of the untreated control.

[3] = tested on: larvae of the mustard beetle (Phaedon cochleariae); test: Phaedon larvae test (dipped cabbage leaves); conditions: active compound concentration 0.1%; after 7 days

Row | chromatographic logP [1] | logP (pH 2) [1] | SMILES | nematicidal action (activity) using gall formation as a measure [2] [%] | kill [3] [%]
1 | 4.83 | – | FC(F)=C(F)CCCCSc1nc2ccccc2s1 [Example 1, 2-(6,6,5-trifluorohex-5-enylthio)-benzothiazole] | 100 | 100
2 | 3.36 | – | O=S(=O)(CCCCC(F)=C(F)F)c1nc2ccccc2s1 [Example 3, 2-(6,6,5-trifluorohex-5-enylsulphonyl)-benzothiazole] | 90 | –
3 | – | 4.37 | FC(F)=C(F)CCCCSc1ccc(-c2ccccc2Cl)nn1 [Example 16] | – | –
4 | – | 5.62 | FC(F)=C(F)CCCCSc1nc2cc(SC(F)(F)F)ccc2o1 [Example 17] | – | –
